The record followed here is patent publication US8821568B2, “Implant modified with non-hydroxylated vitamin D precursors” (Numat Biomedical S.L., priority 2008, dated 2014).

What all share (type): cell-based, mouse
The subject of data set [1] is MC3T3-E1 cells. Put plainly: LDH activity (cell viability) on coated titanium implants. The protocol:
To treat implant surfaces, 10 μl of each dilution treatment were left on the surfaces and were allowed to air-dry for 15 min in the sterile flow bench. For UV-irradiation, a UV lamp of 302 nm was used at an intensity of irradiation ca. 6 mW/cm^2 during several irradiation times.
To test the effect of the surface modification, 96-well plates were used. Ti disks were placed into the wells and treatments and UV-activation were performed over there. Cells grown onto untreated polystyrene tissue culture plastic (TCP) were added as a control for all the experiments. Cells were seeded at a density of 30,000 cells/cm^2 and they were maintained in α-MEM supplemented with 10% FCS and antibiotics. […] Cells were harvested after two days of culture using Trizol reagent (Roche Diagnostics, Mannheim, Germany), to analyze gene expression of several osteoblast differentiation markers and enzymes involved in vitamin D synthesis using real-time RT-PCR. […]
Lactate dehydrogenase (LDH) activity in the culture media was used as an index of cell death. LDH activity was determined spectrophotometrically after 30 min incubation at 25° C. of 50 μl of culture and 50 μl of the reaction mixture by measuring the oxidation of NADH at 490 nm in the presence of piruvate following the manufacturer's protocol (Cytotoxicity Detection Kit (LDH), Roche Diagnostics, Mannheim, Germany). […]

Data set [2] deals with MC3T3-E1 cells. Put plainly: Real-time RT-PCR of hydroxylase enzymes (CYP27A1, CYP27B1), coated titanium implants. To be noted: Ti implants, 48 h. Here is the method: To test the effect of the surface modification, 96-well plates were used. Ti disks were placed into the wells and treatments and UV-activation were performed over there. Cells grown onto untreated polystyrene tissue culture plastic (TCP) were added as a control for all the experiments. Cells were seeded at a density of 30,000 cells/cm^2 and they were maintained in α-MEM supplemented with 10% FCS and antibiotics. Culture media was collected after 48 hours, to test cytotoxicity and the production of the hydroxylated form of vitamin D, 25-D3. […]
RNA was isolated from cells using a monophasic solution of phenol and guanidine thiocyanate (Trizol, Roche Diagnostics, Mannheim, Germany) according to the manufacturer's protocol. RNA was quantified at 260 nm using a Nanodrop spectrophotometer (NanoDrop Technologies, Wilmington, Del., USA). […]
To allow relative quantification after PCR, real-time efficiencies were calculated from the given slopes in the LightCycler 480 software (Roche Diagnostics, Mannheim, Germany) using serial dilutions. Relative quantification after PCR was calculated by normalizing target gene concentration in each sample by the concentration mean of the two reference genes in given sample using the Advanced relative quantification method provided by the LightCycler 480 analysis software.

The test system of data set [3] is MC3T3-E1 cells. Put plainly: ALP activity in cell monolayer on coated titanium implants. As to conditions: Ti implants, day 21. The protocol: To test the effect of the surface modification, 96-well plates were used. Ti disks were placed into the wells and treatments and UV-activation were performed over there. Cells grown onto untreated polystyrene tissue culture plastic (TCP) were added as a control for all the experiments. Cells were seeded at a density of 30,000 cells/cm^2 and they were maintained in α-MEM supplemented with 10% FCS and antibiotics. Culture media was collected after 48 hours, to test cytotoxicity and the production of the hydroxylated form of vitamin D, 25-D3. Cells were harvested after two days of culture using Trizol reagent (Roche Diagnostics, Mannheim, Germany), to analyze gene expression of several osteoblast differentiation markers and enzymes involved in vitamin D synthesis using real-time RT-PCR. On the other hand, MC3T3-E1 cells were harvested after 21 days to measure calcium content and ALP activity in the cell monolayer.
Cell monolayer was collected at 21 cell differentiation days and PBS 0.1% Triton X-100 was added to solubilize proteins. Cell lysates were put into freeze/thaw cycles (liquid nitrogen and 37° C. water bath) to improve protein recovery. After centrifugation at 33,000 g for 15 min at 4° C., supernatants acquired were assayed for ALP activity, calcium content and total protein determination. ALP activity was calculated by measuring the cleavage of p-Nitrophenyl Phosphate (pNPP) (Sigma, St. Louis, Mo., USA) in a soluble yellow end product which absorbs at 405 nm. A volume of 100 μl of this substrate was used in combination with 25 μl of each sample supernatant or standard point. The standard curve was prepared from calf intestinal alkaline phosphatase (CIAP, 1 U/μl) (Promega, Madison, Wis., USA) by mixing 1 μl from the stock CIAP with 5 ml of alkaline phosphatase buffer (1:5000 dilution), and then making 1:5 serial dilutions. Once the reaction was carried out, after 30 min in dark at room temperature, it was stopped with the addition of 50 μl of 3 M sodium hydroxide. At this point, absorbance was read at 405 nm.
Total protein was determined using a BCA protein assay kit (Pierce, Rockford, Ill., USA). For the analysis, cell supernatants were diluted 1:1 in PBS 0.1% Triton X-100. Standard curve and samples were analyzed as described by the manufacturer and reading the absorbance at 562 nm.

For `CC(C)CCC[C@@H](C)[C@H]1CC[C@H]2C3=CC=C4C[C@@H](O)CC[C@]4(C)[C@H]3CC[C@]12C` [7-DHC, 7-dehydrocholesterol], the Cytotoxic effect entry in the data set on MC3T3-E1 cells [1] (Ti implants treated and UV-irradiated) is given as “No cytotoxic effect”. In the data set on MC3T3-E1 cells [1] (Ti implants, 0.2 nmols, 24 h, UV-activated 5 to 10 minutes, compared to negative control (TCP)), the “Cell viability (LDH activity)” value is “protective effects”. In the data set on MC3T3-E1 cells [2] (increasing UV exposure time, significant vs UV-untreated at 15 and 30 min), the CYP27B1 gene expression entry was “upregulated”. Further, the “CYP27A1 mRNA gene expression” value in the data set with MC3T3-E1 cells [2] (with UV irradiation time, maximum after 15 min) is reported as “trend to increase”. Besides, the ALP activity result in the data set on MC3T3-E1 cells [3] (UV-treated vs UV-untreated group) was “significant higher ALP activity”; with MC3T3-E1 cells [3] (UV-untreated, percentage of ethanol UV-untreated group set to 100%, mean±SEM), 44.75±3.50%.
